From ChEMBL document CHEMBL1201861, “Genomics of Drug Sensitity in Cancer screening data, Wellcome Trust Sanger Institute”

Assays:
Ca9-22 = experiment: cells; format: functional, cell-based; conditions: Homo sapiens
Description: SANGER: Inhibition of human Ca9-22 cell growth in a cell viability assay.

DG-75 = experiment: cells; format: functional, cell-based; conditions: Homo sapiens
Description: SANGER: Inhibition of human DG-75 cell growth in a cell viability assay.

DK-MG = experiment: cells; format: functional, cell-based; conditions: Homo sapiens
Description: SANGER: Inhibition of human DK-MG cell growth in a cell viability assay.

DMS-273 = experiment: cells; format: functional, cell-based; conditions: Homo sapiens
Description: SANGER: Inhibition of human DMS-273 cell growth in a cell viability assay.

DOK = experiment: cells; format: functional, cell-based; conditions: Homo sapiens
Description: SANGER: Inhibition of human DOK cell growth in a cell viability assay.

ESS-1 = experiment: cells; format: functional, cell-based; conditions: Homo sapiens
Description: SANGER: Inhibition of human ESS-1 cell growth in a cell viability assay.

GCT = experiment: cells; format: functional, cell-based; conditions: Homo sapiens
Description: SANGER: Inhibition of human GCT cell growth in a cell viability assay.

HCC1806 = experiment: cells; format: functional, cell-based; conditions: Homo sapiens
Description: SANGER: Inhibition of human HCC1806 cell growth in a cell viability assay.

HEC-1 = experiment: cells; format: functional, cell-based; conditions: Homo sapiens
Description: SANGER: Inhibition of human HEC-1 cell growth in a cell viability assay.

HGC-27 = experiment: cells; format: functional, cell-based; conditions: Homo sapiens
Description: SANGER: Inhibition of human HGC-27 cell growth in a cell viability assay.

HO-1-N-1 = experiment: cells; format: functional, cell-based; conditions: Homo sapiens
Description: SANGER: Inhibition of human HO-1-N-1 cell growth in a cell viability assay.

HPAF-II = experiment: cells; format: functional, cell-based; conditions: Homo sapiens
Description: SANGER: Inhibition of human HPAF-II cell growth in a cell viability assay.

HT-29 = experiment: cells; format: functional, cell-based; conditions: Homo sapiens
Description: SANGER: Inhibition of human HT-29 cell growth in a cell viability assay.

HuO-3N1 = experiment: cells; format: functional, cell-based; conditions: Homo sapiens
Description: SANGER: Inhibition of human HuO-3N1 cell growth in a cell viability assay.

HuP-T3 = experiment: cells; format: functional, cell-based; conditions: Homo sapiens
Description: SANGER: Inhibition of human HuP-T3 cell growth in a cell viability assay.

KP-N-YN = experiment: cells; format: functional, cell-based; conditions: Homo sapiens
Description: SANGER: Inhibition of human KP-N-YN cell growth in a cell viability assay.

LCLC-103H cell line = experiment: cells; format: functional, cell-based; conditions: Homo sapiens
Description: SANGER: Inhibition of human LCLC-103H cell growth in a cell viability assay.

LCLC-97TM1 = experiment: cells; format: functional, cell-based; conditions: Homo sapiens
Description: SANGER: Inhibition of human LCLC-97TM1 cell growth in a cell viability assay.

LN-405 = experiment: cells; format: functional, cell-based; conditions: Homo sapiens
Description: SANGER: Inhibition of human LN-405 cell growth in a cell viability assay.

LOUCY = experiment: cells; format: functional, cell-based; conditions: Homo sapiens
Description: SANGER: Inhibition of human LOUCY cell growth in a cell viability assay.

LP-1 = experiment: cells; format: functional, cell-based; conditions: Homo sapiens
Description: SANGER: Inhibition of human LP-1 cell growth in a cell viability assay.

MC-IXC = experiment: cells; format: functional, cell-based; conditions: Homo sapiens
Description: SANGER: Inhibition of human MC-IXC cell growth in a cell viability assay.

MCF7 = experiment: cells; format: functional, cell-based; conditions: Homo sapiens
Description: SANGER: Inhibition of human MCF7 cell growth in a cell viability assay.

MDA-MB-157 = experiment: cells; format: functional, cell-based; conditions: Homo sapiens
Description: SANGER: Inhibition of human MDA-MB-157 cell growth in a cell viability assay.

MDA-MB-361 = experiment: cells; format: functional, cell-based; conditions: Homo sapiens
MEL-HO = experiment: cells; format: functional, cell-based; conditions: Homo sapiens
Description: SANGER: Inhibition of human MEL-HO cell growth in a cell viability assay.

MeWo = experiment: cells; format: functional, cell-based; conditions: Homo sapiens
Description: SANGER: Inhibition of human Mewo cell growth in a cell viability assay.

NCI-H1563 = experiment: cells; format: functional, cell-based; conditions: Homo sapiens
Description: SANGER: Inhibition of human NCI-H1563 cell growth in a cell viability assay.

NCI-H2052 = experiment: cells; format: functional, cell-based; conditions: Homo sapiens
Description: SANGER: Inhibition of human NCI-H2052 cell growth in a cell viability assay.

NCI-H2228 = experiment: cells; format: functional, cell-based; conditions: Homo sapiens
Description: SANGER: Inhibition of human NCI-H2228 cell growth in a cell viability assay.

NCI-H292 = experiment: cells; format: functional, cell-based; conditions: Homo sapiens
Description: SANGER: Inhibition of human NCI-H292 cell growth in a cell viability assay.

NCI-H460 = experiment: cells; format: functional, cell-based; conditions: Homo sapiens
Description: SANGER: Inhibition of human NCI-H460 cell growth in a cell viability assay.

NCI-H810 = experiment: cells; format: functional, cell-based; conditions: Homo sapiens
Description: SANGER: Inhibition of human NCI-H810 cell growth in a cell viability assay.

SNU-16 = experiment: cells; format: functional, cell-based; conditions: Homo sapiens
Description: SANGER: Inhibition of human NCI-SNU-16 cell growth in a cell viability assay.

OAW-28 = experiment: cells; format: functional, cell-based; conditions: Homo sapiens
Description: SANGER: Inhibition of human OAW-28 cell growth in a cell viability assay.

OVCAR-3 = experiment: cells; format: functional, cell-based; conditions: Homo sapiens
Description: SANGER: Inhibition of human OVCAR-3 cell growth in a cell viability assay.

RO82-W-1 = experiment: cells; format: functional, cell-based; conditions: Homo sapiens
Description: SANGER: Inhibition of human RO82-W-1 cell growth in a cell viability assay.

RPMI 8402 = experiment: SANGER: Inhibition of human RPMI-8402 cell growth in a cell viability assay.; format: functional, cell-based
S-117 = experiment: cells; format: functional, cell-based; conditions: Homo sapiens
Description: SANGER: Inhibition of human S-117 cell growth in a cell viability assay.

SAS = experiment: cells; format: functional, cell-based; conditions: Homo sapiens
Description: SANGER: Inhibition of human SAS cell growth in a cell viability assay.

SCC-4 = experiment: cells; format: functional, cell-based; conditions: Homo sapiens
Description: SANGER: Inhibition of human SCC-4 cell growth in a cell viability assay.

SCLC-21H = experiment: cells; format: functional, cell-based; conditions: Homo sapiens
Description: SANGER: Inhibition of human SCLC-21H cell growth in a cell viability assay.

SK-HEP1 = experiment: cells; format: functional, cell-based, SK-HEP-1; conditions: Homo sapiens
Description: SANGER: Inhibition of human SK-HEP-1 cell growth in a cell viability assay.

SNU-423 = experiment: cells; format: functional, cell-based; conditions: Homo sapiens
Description: SANGER: Inhibition of human SNU-423 cell growth in a cell viability assay.

SW1417 = experiment: cells; format: functional, cell-based; conditions: Homo sapiens
Description: SANGER: Inhibition of human SW1417 cell growth in a cell viability assay.

SW48 = experiment: cells; format: functional, cell-based; conditions: Homo sapiens
Description: SANGER: Inhibition of human SW48 cell growth in a cell viability assay.

SW626 = experiment: cells; format: functional, cell-based; conditions: Homo sapiens
Description: SANGER: Inhibition of human SW626 cell growth in a cell viability assay.

TALL-1 = experiment: cells; format: functional, cell-based; conditions: Homo sapiens
Description: SANGER: Inhibition of human TALL-1 cell growth in a cell viability assay.

647-V = experiment: cells; format: functional, cell-based; conditions: Homo sapiens
Description: SANGER: Inhibition of human 647-V cell growth in a cell viability assay.

786-0 = experiment: cells; format: functional, cell-based; conditions: Homo sapiens
Description: SANGER: Inhibition of human 786-0 cell growth in a cell viability assay.

8505C = experiment: cells; format: functional, cell-based; conditions: Homo sapiens
Description: SANGER: Inhibition of human 8505C cell growth in a cell viability assay.

A 172 = experiment: cells; format: functional, cell-based; conditions: Homo sapiens
Description: SANGER: Inhibition of human A172 cell growth in a cell viability assay.

A-375 = experiment: cells; format: functional, cell-based; conditions: Homo sapiens
Description: SANGER: Inhibition of human A375 cell growth in a cell viability assay.

ACHN = experiment: cells; format: functional, cell-based; conditions: Homo sapiens
Description: SANGER: Inhibition of human ACHN cell growth in a cell viability assay.

BC1 cell line = experiment: SANGER: Inhibition of human BC-1 cell growth in a cell viability assay.; format: functional, cell-based
BEN = experiment: cells; format: functional, cell-based; conditions: Homo sapiens
Description: SANGER: Inhibition of human BEN cell growth in a cell viability assay.

BPH-1 = experiment: cells; format: functional, cell-based; conditions: Homo sapiens
Description: SANGER: Inhibition of human BPH-1 cell growth in a cell viability assay.

BT-20 = experiment: cells; format: functional, cell-based; conditions: Homo sapiens
Description: SANGER: Inhibition of human BT-20 cell growth in a cell viability assay.

CAL-39 = experiment: cells; format: functional, cell-based; conditions: Homo sapiens
Description: SANGER: Inhibition of human CAL-39 cell growth in a cell viability assay.

CAL-54 = experiment: cells; format: functional, cell-based; conditions: Homo sapiens
Description: SANGER: Inhibition of human CAL-54 cell growth in a cell viability assay.

TGW = experiment: cells; format: functional, cell-based; conditions: Homo sapiens
Description: SANGER: Inhibition of human TGW cell growth in a cell viability assay.

U-118-MG = experiment: cells; format: functional, cell-based; conditions: Homo sapiens
Description: SANGER: Inhibition of human U-118-MG cell growth in a cell viability assay.

YAPC = experiment: cells; format: functional, cell-based; conditions: Homo sapiens
Description: SANGER: Inhibition of human YAPC cell growth in a cell viability assay.

CMK = experiment: cells; format: functional, cell-based; conditions: Homo sapiens
Description: SANGER: Inhibition of human CMK cell growth in a cell viability assay.

COLO-678 = experiment: cells; format: functional, cell-based; conditions: Homo sapiens
Description: SANGER: Inhibition of human COLO-678 cell growth in a cell viability assay.

## N#C/C(=C1/Nc2ccccc2S1)c1ccnc(NCCc2cccnc2)n1
Ca9-22
  IC50: > 8000 nM
DG-75
  IC50: > 8000 nM
DK-MG
  IC50: > 8000 nM
DMS-273
  IC50: 1490 nM
DOK
  IC50: > 8000 nM
ESS-1
  IC50: 6490 nM
GCT
  IC50: 3600 nM
HCC1806
  IC50: 1530 nM
HEC-1
  IC50: > 8000 nM
HGC-27
  IC50: 6270 nM
HO-1-N-1
  IC50: > 8000 nM
HPAF-II
  IC50: > 8000 nM
HT-29
  IC50: 4270 nM
HuO-3N1
  IC50: 815 nM
HuP-T3
  IC50: > 8000 nM
KP-N-YN
  IC50: > 8000 nM
LCLC-103H cell line
  IC50: > 8000 nM
LCLC-97TM1
  IC50: 2120 nM
LN-405
  IC50: > 8000 nM
LOUCY
  IC50: > 8000 nM
LP-1
  IC50: > 8000 nM
MC-IXC
  IC50: > 8000 nM
MCF7
  IC50: 1500 nM
MDA-MB-157
  IC50: 7070 nM
MDA-MB-361
  IC50: 6490 nM
MEL-HO
  IC50: 5460 nM
MeWo
  IC50: > 8000 nM
NCI-H1563
  IC50: > 8000 nM
NCI-H2052
  IC50: > 8000 nM
NCI-H2228
  IC50: 4480 nM
NCI-H292
  IC50: > 8000 nM
NCI-H460
  IC50: > 8000 nM
NCI-H810
  IC50: 5340 nM
SNU-16
  IC50: > 8000 nM
OAW-28
  IC50: > 8000 nM
OVCAR-3
  IC50: > 8000 nM
RO82-W-1
  IC50: > 8000 nM
RPMI 8402
  IC50: > 8000 nM
S-117
  IC50: 6940 nM
SAS
  IC50: > 8000 nM
SCC-4
  IC50: > 8000 nM
SCLC-21H
  IC50: > 8000 nM
SK-HEP1
  IC50: 4860 nM
SNU-423
  IC50: 2300 nM
SW1417
  IC50: > 8000 nM
SW48
  IC50: 2160 nM
SW626
  IC50: 5870 nM
TALL-1
  IC50: > 8000 nM
647-V
  IC50: > 8000 nM
786-0
  IC50: 3080 nM
8505C
  IC50: 2900 nM
A 172
  IC50: 2160 nM
A-375
  IC50: > 8000 nM
ACHN
  IC50: 2350 nM
BC1 cell line
  IC50: 5380 nM
BEN
  IC50: > 8000 nM
BPH-1
  IC50: > 8000 nM
BT-20
  IC50: > 8000 nM
CAL-39
  IC50: > 8000 nM
CAL-54
  IC50: > 8000 nM
TGW
  IC50: > 8000 nM
U-118-MG
  IC50: > 8000 nM
YAPC
  IC50: > 8000 nM
CMK
  IC50: 2750 nM
COLO-678
  IC50: > 8000 nM

## CC(O)(CS(=O)(=O)c1ccc(F)cc1)C(=O)Nc1ccc(C#N)c(C(F)(F)F)c1 (stereo not given) [BICALUTAMIDE]
Ca9-22
  IC50: > 1020 nM
DG-75
  IC50: > 1020 nM
DK-MG
  IC50: > 1020 nM
DMS-273
  IC50: > 1020 nM
DOK
  IC50: > 1020 nM
ESS-1
  IC50: > 1020 nM
GCT
  IC50: > 1020 nM
HCC1806
  IC50: > 1020 nM
HEC-1
  IC50: > 1020 nM
HGC-27
  IC50: > 1020 nM
HO-1-N-1
  IC50: > 1020 nM
HPAF-II
  IC50: > 1020 nM
HT-29
  IC50: > 1020 nM
HuO-3N1
  IC50: > 1020 nM
HuP-T3
  IC50: > 1020 nM
KP-N-YN
  IC50: > 1020 nM
LCLC-103H cell line
  IC50: > 1020 nM
LCLC-97TM1
  IC50: > 1020 nM
LN-405
  IC50: > 1020 nM
LOUCY
  IC50: > 1020 nM
LP-1
  IC50: > 1020 nM
MC-IXC
  IC50: > 1020 nM
MCF7
  IC50: > 1020 nM
MDA-MB-157
  IC50: > 1020 nM
MDA-MB-361
  IC50: > 1020 nM
MEL-HO
  IC50: > 1020 nM
MeWo
  IC50: > 1020 nM
NCI-H1563
  IC50: > 1020 nM
NCI-H2052
  IC50: > 1020 nM
NCI-H2228
  IC50: > 1020 nM
NCI-H292
  IC50: > 1020 nM
NCI-H460
  IC50: > 1020 nM
NCI-H810
  IC50: > 1020 nM
SNU-16
  IC50: > 1020 nM
OAW-28
  IC50: > 1020 nM
OVCAR-3
  IC50: > 1020 nM
RO82-W-1
  IC50: > 1020 nM
RPMI 8402
  IC50: > 1020 nM
S-117
  IC50: > 1020 nM
SAS
  IC50: > 1020 nM
SCC-4
  IC50: > 1020 nM
SCLC-21H
  IC50: > 1020 nM
SK-HEP1
  IC50: > 1020 nM
SNU-423
  IC50: > 1020 nM
SW1417
  IC50: > 1020 nM
SW48
  IC50: > 1020 nM
SW626
  IC50: > 1020 nM
TALL-1
  IC50: > 1020 nM
647-V
  IC50: > 1020 nM
786-0
  IC50: > 1020 nM
8505C
  IC50: > 1020 nM
A 172
  IC50: > 1020 nM
A-375
  IC50: > 1020 nM
ACHN
  IC50: > 1020 nM
BC1 cell line
  IC50: > 1020 nM
BEN
  IC50: > 1020 nM
BPH-1
  IC50: > 1020 nM
BT-20
  IC50: > 1020 nM
CAL-39
  IC50: > 1020 nM
CAL-54
  IC50: > 1020 nM
TGW
  IC50: > 1020 nM
U-118-MG
  IC50: > 1020 nM
YAPC
  IC50: > 1020 nM
CMK
  IC50: > 1020 nM
COLO-678
  IC50: > 1020 nM
